Results on 2 compounds are retold here after patent US20220031695A1, “SHP2 INHIBITOR COMPOSITIONS FOR USE IN TREATING CANCER” (Revolution Medicines, Inc., priority 2018, published 2022).

Assay [1] has as its system ROS1 fusion-positive NSCLC. As to conditions: patients harboring ROS1 fusion-positive NSCLC; cited from earlier work.
The next assay concerns the target T1, SHP2 (Homo sapiens, UniProt Q06124).
T1 sequence (Q06124 1-593): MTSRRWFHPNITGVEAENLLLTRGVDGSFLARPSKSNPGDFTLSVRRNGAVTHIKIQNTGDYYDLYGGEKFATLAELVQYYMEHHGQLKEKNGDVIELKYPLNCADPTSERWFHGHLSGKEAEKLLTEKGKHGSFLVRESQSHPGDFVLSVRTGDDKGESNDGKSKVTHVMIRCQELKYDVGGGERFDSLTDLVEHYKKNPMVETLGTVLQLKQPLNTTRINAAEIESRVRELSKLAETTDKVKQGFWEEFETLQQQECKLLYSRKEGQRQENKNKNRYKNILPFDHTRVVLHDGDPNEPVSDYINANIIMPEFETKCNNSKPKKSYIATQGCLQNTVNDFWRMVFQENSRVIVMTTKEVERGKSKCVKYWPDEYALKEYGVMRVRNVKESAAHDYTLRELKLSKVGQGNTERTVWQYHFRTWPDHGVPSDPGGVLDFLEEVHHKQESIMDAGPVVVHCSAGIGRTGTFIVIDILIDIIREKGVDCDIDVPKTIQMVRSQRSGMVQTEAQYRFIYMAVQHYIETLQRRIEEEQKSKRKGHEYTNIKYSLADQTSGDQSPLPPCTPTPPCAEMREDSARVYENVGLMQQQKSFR
Description: SHP2 allosteric inhibition assay (DiFMUP prompt fluorescence). To be noted: 0.2 nM SHP2, 0.5 μM activating peptide, DiFMUP substrate. The class given is biochemical. The source says:
Without wishing to be bound by theory, SHP is allosterically activated through binding of bis-tyrosyl-phosphorylated peptides to its Src Homology 2 (SH2) domains. The latter activation step leads to the release of the auto-inhibitory interface of SHP2, which in turn renders the SHP2 protein tyrosine phosphatase (PTP) active and available for substrate recognition and reaction catalysis. The catalytic activity of SHP2 was monitored using the surrogate substrate DiFMUP in a prompt fluorescence assay format.
The phosphatase reactions were performed at room temperature in 96-well black polystyrene plate, flat bottom, non-binding surface (Corning, Cat #3650) using a final reaction volume of 100 μL and the following assay buffer conditions: 50 mM HEPES, pH 7.2, 100 mM NaCl, 0.5 mM EDTA, 0.05% P-20, 1 mM DTT.
The inhibition of SHP2 by RMC-3943, RMC-4550, and Compound C was monitored using an assay in which 0.2 nM of SHP2 was incubated with 0.5 μM of Activating Peptide 1 (sequence: H2N-LN(pY)IDLDLV(dPEG8)LST(pY)ASINFQK-amide) (SEQ ID NO: 1) or Activating Peptide 2 (sequence: H2N-LN(pY)AQLWHA(dPEG8)LTI(pY)ATIRRF-amide) (SEQ ID NO: 2). After 30-60 minutes incubation at 25° C., the surrogate substrate DiFMUP (Invitrogen, Cat #D6567) was added to the reaction and activity was determined by a kinetic read using a microplate reader (Envision, Perkin-Elmer or Spectramax M5, Molecular Devices). […]

Take `C[C@@H](Oc1cc(-c2cnn(C3CCNCC3)c2)cnc1N)c1c(Cl)ccc(F)c1Cl` [crizotinib]: the progression-free survival in assay [1] is recorded as 19 month.

For `Nc1nc(N2CCC3(CCC[C@H]3N)CC2)cnc1Sc1ccnc(Cl)c1Cl` [RMC-3943], the IC50 (in general, the concentration needed to halve the response being measured) at SHP2 is 2.19 nM.
